# Source: patent publication US20050187141A1, “Control of gene induced by oxidated lipids in human artery wall cells” (The Regents of the University of California, priority 2000, published 2005)
# Legend:
# paraoxonase-1 (PON1) = test: Paraoxonase activity of plasma fractions of apo E deficient mice; format: in vivo; conditions: 2.0 mg/ml in drinking water, FIG. 7
# Protocol: Plasma fractions obtained as described in above were analyzed for paraoxonase activity using paraoxon a substrate as reported by Watson et al. (1995) J Clin Invest., 96: 2882-2891). The control samples are shown as diamonds in the figure.
# [1] = test system: Human artery wall cell cocultures; test: HDL protective capacity and LDL susceptibility to oxidation in human artery wall cell cocultures; format: in vivo, apo E deficient mice; conditions: 18 hrs, FIG. 8
# Protocol: Plasma fractions obtained as described above were pooled in the region containing LDL and the region containing HDL. Human artery wall cell cocultures were prepared as reported previously (Navab et al. (1997) J Clin Invest., 99: 2005-2019) and used to determine the extent of LDL oxidation as judged by the level of monocyte chemotactic activity generated by oxidized LDL. As the assay controls, to some wells containing the artery wall cocultures was added a standard human LDL (h LDL) at 200 μg LDL protein per ml. To other wells was added h LDL+human HDL (h HDL) at 350 μg HDL protein per ml. The protective capacity of HDL obtained from apo E deficient mice was then tested. To some wells was added standard human LDL (Std. h LDL) at 200 μg LDL protein per ml plus 50 μg of HDL cholesterol obtained from the mice that had received drinking water without additions (Std. h LDL+Cont. E null HDL). To other wells in addition to human LDL, HDL (at 50 μg cholesterol/ml) obtained from mice given drinking water containing 2.0 mg per ml of 1,2-dimyristoyl-sn-glycero-3-phosphocholine (1,2-ditetradecanoyl-sn-glycero-3-phosphocholine) (Std. h LDL+DGP HDL) was added and incubated for 18 hrs. LDL susceptibility to oxidation was additionally determined. […] The values are mean±SD of the number of monocytes counted in 9 high power fields from quadruple wells. […]
# [2] = Lipoprotein cholesterol levels (FPLC) in apo E deficient mice; format: in vivo; conditions: 2.0 mg/ml in drinking water, 24 and 48 hrs, FIG. 6
# Protocol: Apo E deficient mice were purchased from Jackson Laboratories (Bar Harbor, Me.). The mice were 5 weeks old at the time of the experiments. The animals were maintained on a chow diet containing 4% fat, obtained from Ralston-Purina (St. Louis, Mo.). Synthetic 1,2-ditetradecanoyl-sn-glycero-3-phosphocholine (shown in the figure as circles at 24 h and as triangles at 48 h and abbreviated as DGP; 99+% purity, catalog # P 2663, Lot # 17H8362, Sigma Chemical Company, St. Louis Mo.) was added at 2.0 mg/ml to the drinking water of one group of apo E deficient mice (n=5). […] After 24 and 48 hrs blood was collected from the retroorbital sinus under mild anesthesia into heparinized tubes under an approved protocol of the UCLA Animal Research Committee. Plasma was separated and was fractionated using fast protein liquid chromatography (FPLC). Cholesterol content of the fractions was determined using a kit (Infinity reagent) obtained from Sigma Chemical Company.
# lesions = test: Lesion regression in 10 month old apo E deficient mice; format: in vivo; conditions: 1.0 mg/ml in drinking water for five weeks after 10 months on chow, FIG. 10
# Protocol: Apo E deficient mice were purchased from Jackson Laboratories (Bar Harbor, Me.). The mice were maintained on a chow diet containing 4% fat, obtained from Ralston-Purina (St. Louis, Mo.) for 10 months at which time one group (n=5) were sacrificed and lesions determined. A second group (n=8) received 1.0 mg/ml of synthetic 1,2-ditetradecanoyl-sn-glycero-3-phosphorylcholine (DGP, approximately 99% pure, catalog # P 7331, Sigma Chemical Company, St. Louis, Mo.) in their drinking water for another five weeks. […] After 5 weeks of treatment, the animals were sacrificed. The hearts and blood vessels from the three groups were harvested and processed as previously reported (Qiao 1994) to determine lesion area.
# fatty streak lesions = test: Fatty streak lesions in apo E deficient mice; format: in vivo; conditions: 1.0 mg/ml in drinking water, 5 weeks, FIG. 9
# Protocol: Apo E deficient mice were purchased from Jackson Laboratories (Bar Harbor, Me.). The mice were 5 weeks old at the time of the experiments. The animals were maintained on a chow diet containing 4% fat, obtained from Ralston-Purina (St. Louis, Mo.). One group (n=10) was given in their drinking water 1.0 mg/ml of 1,2-dimyristoyl-sn-glycero-3-phosphocholine (1,2-ditetradecanoyl-sn-glycero-3-phosphocholine) (shown as DGP on the figure, approximately 99% pure, catalog # P 7331, Sigma Chemical Company, St. Louis, Mo.). […] After 5 weeks of treatment, the animals were sacrificed and hearts were harvested and processed according to the methods described by Qiao et al. (1994) Arterioscl Thromb, 14: 1480-1497). In brief, 10 μm thick cryosections were stained with Oil red 0 and hematoxylin and counterstained with fast green and examined by light microscopy for the identification of atheromatous lesions. Lesion size was measured using a 1.0 cm optical grid with 20×20 grid lines. Under 10× magnification, each square corresponded to 1/400 mm^2 (or 2500 μm^2). A square with lipophilic stain was counted as lesion if the visually observed stain covered at least 1/8th of the square.
# [3] = test system: human aortic endothelial cells; test: Monocyte adhesion assay with supernatants of Ox-PAPC treated HAECs; format: cell-based; conditions: oligonucleotide 100 nM, 18 h, then Ox-PAPC 50 μg/ml 4 h, FIG. 4
# Protocol: (§1) Human aortic endothelial cells were transfected with either ‘antisense’ or ‘sense’ phosphorothioate oligonucleotides (100 nM) to human MKP-1. Eighteen hours later, control and transfected cells were either left untreated or treated with Ox-PAPC (50 μg/ml) for an additional four hours. Following the treatments, cell supernatants were collected and analyzed in a monocyte adhesion assay.
# [4] = test system: human aortic endothelial cells; test: Monocyte chemotactic activity of supernatants of Ox-PAPC treated HAECs; format: cell-based; conditions: oligonucleotide 100 nM, 18 h, then Ox-PAPC 50 μg/ml 4 h, FIG. 5A-5C
# Protocol: as §1, with “for” for “in a”, “chemotactic activity.” for “adhesion assay.”
# human MKP-1 = test: Western blot of MKP-1 protein in Ox-PAPC treated HAECs after oligonucleotide transfection; format: cell-based; conditions: oligonucleotide 100 nM, 18 h, then Ox-PAPC 50 μg/ml 4 h, FIG. 3A, 3B
# Protocol: HAECs were transfected with either ‘antisense’ or ‘sense’ phosphorothioate oligonucleotides (100 nM) to human MKP-1. Eighteen hours later, control and transfected cells were either left untreated or treated with Ox-PAPC (50 μg/ml) for an additional four hours.
# influenza A = conditions: injected, mice; cited from earlier work
molecule,measurement,setting,value
"CCCCCCCCCCCCCC(=O)OC[C@H](COP(=O)([O-])OCC[N+](C)(C)C)OC(=O)CCCCCCCCCCCCC [1,2-dimyristoyl-sn-glycero-3-phosphocholine]",content of paraoxonase-1 (PON1) associated with HDL,paraoxonase-1 (PON1),dramatic increase
same,HDL protective capacity (protecting LDL against oxidation),"[1]; HDL from mice given 2.0 mg per ml in drinking water, 50 μg cholesterol/ml",more effective in protecting LDL against oxidation
same,LDL susceptibility to oxidation,"[1]; LDL from mice given 2.0 mg per ml in drinking water, 100 μg LDL cholesterol per ml",more resistant to oxidation by artery walls
same,high density lipoprotein (HDL) levels,[2],dramatic increase
same,very low density lipoproteins (VLDL) or low density lipoproteins (LDL),[2],without a significant change
same,lesion area change,lesions,dramatic lesion regression
same,reduction in atherosclerosis,fatty streak lesions,84.1%
"antisense oligonucleotides: antisense phosphorothioate oligonucleotide to human MKP-1; 5′-GGAACTCAGTGGAACTCAGG-3′ (SEQ ID NO:2) (antisense GGAACTCAGTGGAACTCAGG; all phosphorothioate, sugars by position and methylation of C not given here)",Ox-PAPC induction of monocyte adherence,[3],did not promote monocyte adhesion
same,monocyte chemotactic activity / monocyte chemotaxis,[4],did not promote monocyte chemotaxis
same,Ox-PAPC-induced MKP-1 protein expression,human MKP-1,prevent the accumulation of MKP-1 protein
"apo A-I: apo A-I, injected in mice with influenza A in a copending application",signs and symptoms of influenza A,influenza A,greatly ameliorated
